Measured values published in patent publication US20250215029A1 (Recludix Pharma, Inc., priority 2022, published 2025).

The compounds below were run against T1, pY641-STAT6 in PBMC (Homo sapiens, UniProt P42226) (assay: MSD-pSTAT-PBMC Assay (pSTAT6, IL-4 stimulated)). Conditions: STAT6, PBMC, compound 3 hrs, then 1 ng/mL IL-4 for 10 min; Table 115.
T1 construct: Cryopreserved Peripheral Blood Mononuclear Cells (PBMC) are from AllCells; host or cells: cryopreserved PBMC
T1 sequence (P42226 1-847): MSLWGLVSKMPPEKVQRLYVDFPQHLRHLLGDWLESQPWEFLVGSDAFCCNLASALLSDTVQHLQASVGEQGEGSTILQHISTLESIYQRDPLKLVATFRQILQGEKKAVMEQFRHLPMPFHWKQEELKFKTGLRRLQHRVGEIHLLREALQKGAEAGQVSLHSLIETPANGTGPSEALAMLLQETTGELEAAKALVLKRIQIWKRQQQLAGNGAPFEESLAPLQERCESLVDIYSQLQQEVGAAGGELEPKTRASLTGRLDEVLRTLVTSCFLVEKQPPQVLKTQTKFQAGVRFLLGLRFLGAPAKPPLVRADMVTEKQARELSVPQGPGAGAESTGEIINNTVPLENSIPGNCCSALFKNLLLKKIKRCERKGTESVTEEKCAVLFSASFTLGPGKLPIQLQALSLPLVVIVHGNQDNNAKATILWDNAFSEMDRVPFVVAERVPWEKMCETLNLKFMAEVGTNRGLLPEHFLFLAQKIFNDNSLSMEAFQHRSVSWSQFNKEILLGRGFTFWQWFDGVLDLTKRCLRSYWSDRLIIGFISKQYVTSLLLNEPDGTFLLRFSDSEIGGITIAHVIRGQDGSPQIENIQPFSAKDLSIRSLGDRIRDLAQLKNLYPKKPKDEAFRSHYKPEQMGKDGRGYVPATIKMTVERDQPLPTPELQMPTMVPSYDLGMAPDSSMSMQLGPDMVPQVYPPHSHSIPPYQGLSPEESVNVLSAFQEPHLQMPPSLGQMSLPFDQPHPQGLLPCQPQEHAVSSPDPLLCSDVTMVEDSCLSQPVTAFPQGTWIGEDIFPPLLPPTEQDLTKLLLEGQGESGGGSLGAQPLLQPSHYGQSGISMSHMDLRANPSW
Format: cell-based
How it was run: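 Cells are preincubated with compound for 3 hrs, then stimulated for 10 min, IL-4 at 1 ng/mL driving STAT6 phosphorylation and IL-6 at 10 ng/mL driving STAT3. Phospho-STAT in lysates is quantified by MSD immunoassay, and IC50 is fitted after subtracting unstimulated wells.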
For `CCCOC(=O)[C@H](C)NP(=O)(Oc1ccccc1)C(F)c1ccc2sc(C(=O)N[C@H]3CCCC[C@H]4CC[C@@H](C(=O)N5C(=O)N(c6cncc(F)c6)C(=O)C56CC6)N4C3=O)cc2c1` (stereo partly drawn) [Compound 473, propyl ((fluoro(2-(((3S,6S,10aS)-3-(6-(5-fluoropyridin-3-yl)-5,7-dioxo-4,6-diazaspiro[2.4]heptane-4-carbonyl)-5-oxodecahydropyrrolo [1,2-a]azocin-6-yl)carbamoyl)benzo [b]thiophen-5-yl)methyl)(phenoxy)phosphoryl)-L-alaninate], the IC50 was greater than 3000 nM.
With `CCCOC(=O)[C@H](C)NP(=O)(Oc1ccccc1)C(F)c1ccc2ccc(C(=O)N[C@H]3CCCC[C@H]4CC[C@@H](C(=O)N5CC(c6ccccc6)CC56CC6)N4C3=O)cc2c1` (stereo partly drawn) [Compound 411, propyl ((fluoro(7-(((3S,6S,10aS)-5-oxo-3-(6-phenyl-4-azaspiro[2.4]heptane-4-carbonyl)decahydropyrrolo[1,2-a]azocin-6-yl)carbamoyl)naphthalen-2-yl)methyl)(phenoxy)phosphoryl)-L-alaninate] the IC50 was less than 100 nM.
Work on `CCCOC(=O)[C@H](C)NP(=O)(Oc1ccccc1)C(F)c1ccc2sc(C(=O)N[C@H]3CCCC[C@H]4CC[C@@H](C(=O)N5C(=O)N(c6ccn(C(C)C)c(=O)c6)C(=O)C56CC6)N4C3=O)cc2c1` (stereo partly drawn) [Compound 981, propyl ((fluoro(2-(((3S,6S,10aS)-3-(6-(1-isopropyl-2-oxo-1,2-dihydropyridin-4-yl)-5,7-dioxo-4,6-diazaspiro [2.4]heptane-4-carbonyl)-5-oxodecahydropyrrolo [1,2-a]azocin-6-yl)carbamoyl)benzo [b]thiophen-5-yl)methyl)(phenoxy)phosphoryl)-L-alaninate] yielded an IC50 greater than 3000 nM.
`CCCOC(=O)[C@H](C)NP(=O)(Oc1cccc(OCCOC)c1)[C@@H](F)c1ccc2sc(C(=O)N[C@H]3CCC[C@H]4CC[C@@H](C(=O)N5C[C@@H](c6cccnc6)CC56CC6)N4C3=O)cc2c1` (stereo partly drawn) [Compound 357, propyl (((R)-fluoro(2-(((3S,6S,9aS)-5-oxo-3-((R)-6-(pyridin-3-yl)-4-azaspiro[2.4]heptane-4-carbonyl)octahydro-1H-pyrrolo[1,2-a]azepin-6-yl)carbamoyl)benzo [b]thiophen-5-yl)methyl)(3-(2-methoxyethoxy)phenoxy)phosphoryl)-L-alaninate] showed an IC50 of less than 100 nM.
Compound `COCCOC(=O)[C@H](COC)NP(=O)(Oc1ccccc1)[C@@H](F)c1ccc2sc(C(=O)N[C@H]3CCCC[C@H]4CC[C@@H](C(=O)N5C[C@H](c6ccccc6)[C@@H](C#N)C56CC6)N4C3=O)cc2c1` (stereo partly drawn) [Compound 376, 2-methoxyethyl N-(((R)-(2-(((3S,6S,10aS)-3-((6S,7R)-7-cyano-6-phenyl-4-azaspiro[2.4]heptane-4-carbonyl)-5-oxodecahydropyrrolo [1,2-a]azocin-6-yl)carbamoyl)benzo [b]thiophen-5-yl)fluoromethyl) (phenoxy)phosphoryl)-O-methyl-L-serinate] has an IC50 of less than 100 nM.
`CCCOC(=O)[C@H](C)NP(=O)(Oc1ccccc1)C(F)c1ccc2sc(C(=O)N[C@H]3CCCC[C@H]4CC[C@@H](C(=O)N5CCC(c6cnn(C)c(=O)c6)C5)N4C3=O)cc2c1` (stereo partly drawn) [Compound 465, propyl ((fluoro(2-(((3S,6S,10aS)-3-(3-(1-methyl-6-oxo-1,6-dihydropyridazin-4-yl)pyrrolidine-1-carbonyl)-5-oxodecahydropyrrolo [1,2-a]azocin-6-yl)carbamoyl)benzo [b]thiophen-5-yl)methyl)(phenoxy)phosphoryl)-L-alaninate] gave an IC50 greater than 3000 nM.
`CCCOC(=O)[C@H](C)NP(=O)(Oc1ccccc1)[C@@H](F)c1ccc2sc(C(=O)N[C@H]3CCCC[C@H]4CC[C@@H](C(=O)N5C(=O)N(c6cncc(C(F)F)c6)C(=O)C56CC6)N4C3=O)cc2c1` (stereo partly drawn) [Compound 333, propyl (((R)-(2-(((3S,6S,10aS)-3-(6-(5-(difluoromethyl)pyridin-3-yl)-5,7-dioxo-4,6-diazaspiro[2.4]heptane-4-carbonyl)-5-oxodecahydropyrrolo [1,2-a]azocin-6-yl)carbamoyl)benzo [b]thiophen-5-yl)fluoromethyl) (phenoxy)phosphoryl)-L-alaninate] was tested, and the IC50 was greater than 3000 nM.
Compound `CCCOC(=O)[C@H](C)NP(=O)(Oc1ccccc1)[C@H](F)c1ccc2sc(C(=O)N[C@H]3CCC[C@H]4CC[C@@H](C(=O)N5C[C@@H](c6cccnc6)[C@H](C#N)C56CC6)N4C3=O)cc2c1` (single isomer, unassigned) [Compound 355] has an IC50 of less than 100 nM.
`CCCOC(=O)[C@H](C)NP(=O)(Oc1ccccc1)C(F)c1ccc2sc(C(=O)N[C@H]3CCC[C@H]4CC[C@@H](C(=O)N5CC(c6cccnc6)CC56CC6)N4C3=O)cc2c1` (stereo partly drawn) [Compound 456, propyl ((fluoro(2-(((3S,6S,9aS)-5-oxo-3-(6-(pyridin-3-yl)-4-azaspiro[2.4]heptane-4-carbonyl)octahydro-1H-pyrrolo[1,2-a]azepin-6-yl)carbamoyl)benzo [b]thiophen-5-yl)methyl)(phenoxy)phosphoryl)-L-alaninate] showed an IC50 of less than 100 nM.
Compound `CCCOC(=O)[C@H](C)NP(=O)(Oc1ccccc1)C(F)c1ccc2ccc(C(=O)N[C@H]3CCCC[C@H]4CC[C@@H](C(=O)N5CCC(F)(c6ccn(C)c(=O)c6)C5)N4C3=O)cc2c1` (stereo partly drawn) [Compound 451, propyl ((fluoro(7-(((3S,6S,10aS)-3-(3-fluoro-3-(1-methyl-2-oxo-1,2-dihydropyridin-4-yl)pyrrolidine-1-carbonyl)-5-oxodecahydropyrrolo [1,2-a]azocin-6-yl)carbamoyl)naphthalen-2-yl)methyl)(phenoxy)phosphoryl)-L-alaninate] has an IC50 of 100 to 1000 nM.
For `CCCOC(=O)[C@H](C)NP(=O)(Oc1ccccc1)[C@@H](F)c1ccc2sc(C(=O)N[C@H]3CCC[C@H]4CC[C@@H](C(=O)N5C[C@@H](c6ccn(C)c(=O)c6)CC56CC6)N4C3=O)cc2c1` (stereo partly drawn) [Compound 346, propyl (((R)-fluoro(2-(((3S,6S,9aS)-3-((R)-6-(1-methyl-2-oxo-1,2-dihydropyridin-4-yl)-4-azaspiro[2.4]heptane-4-carbonyl)-5-oxooctahydro-1H-pyrrolo[1,2-a]azepin-6-yl)carbamoyl)benzo [b]thiophen-5-yl)methyl)(phenoxy)phosphoryl)-L-alaninate], the IC50 was less than 100 nM.
`CCCOC(=O)[C@H](C)NP(=O)(Oc1ccccc1)C(F)(F)c1ccc2ccc(C(=O)N[C@H]3CCCC[C@H]4CC[C@@H](C(=O)N5C[C@@H](c6cc[nH]c(=O)c6)CC56CC6)N4C3=O)cc2c1` (stereo partly drawn) [Compound 414, propyl ((difluoro(7-(((3S,6S,10aS)-5-oxo-3-((R)-6-(2-oxo-1,2-dihydropyridin-4-yl)-4-azaspiro[2.4]heptane-4-carbonyl)decahydropyrrolo[1,2-a]azocin-6-yl)carbamoyl)naphthalen-2-yl)methyl)(phenoxy)phosphoryl)-L-alaninate] gave an IC50 of 100 to 1000 nM.
Work on `CCCOC(=O)[C@H](C)NP(=O)(Oc1ccccc1)[C@@H](F)c1ccc2sc(C(=O)N[C@H]3CCCC[C@H]4CC[C@@H](C(=O)N5C[C@H](c6cccc(OC)c6)[C@@H](C#N)C56CC6)N4C3=O)cc2c1` (single isomer, unassigned) [Compound 335] yielded an IC50 of less than 100 nM.
Work on `CCCOC(=O)[C@H](C)NP(=O)(Oc1ccccc1)[C@@H](F)c1ccc2sc(C(=O)N[C@H]3CCCC[C@H]4CC[C@@H](C(=O)N5C(=O)N(c6cncc(OC)c6)C(=O)C56CC6)N4C3=O)cc2c1` (stereo partly drawn) [Compound 331, propyl (((R)-fluoro(2-(((3S,6S,10aS)-3-(6-(5-methoxypyridin-3-yl)-5,7-dioxo-4,6-diazaspiro[2.4]heptane-4-carbonyl)-5-oxodecahydropyrrolo [1,2-a]azocin-6-yl)carbamoyl)benzo [b]thiophen-5-yl)methyl)(phenoxy)phosphoryl)-L-alaninate] yielded an IC50 of 1000 to 3000 nM.
For `CCCOC(=O)[C@H](C)NP(=O)(Oc1ccccc1)[C@H](F)c1ccc2sc(C(=O)N[C@H]3CC[C@H](N4CCC4)C[C@H]4CC[C@@H](C(=O)N5C[C@@H](c6ccccc6)[C@H](C#N)C56CC6)N4C3=O)cc2c1` (stereo partly drawn) [Compound 492, propyl (((S)-(2-(((3S,6S,9S,10aR)-9-(azetidin-1-yl)-3-((6R,7S)-7-cyano-6-phenyl-4-azaspiro[2.4]heptane-4-carbonyl)-5-oxodecahydropyrrolo [1,2-a]azocin-6-yl)carbamoyl)benzo [b]thiophen-5-yl)fluoromethyl) (phenoxy)phosphoryl)-L-alaninate], the IC50 was less than 100 nM.
`CCCOC(=O)[C@H](C)NP(=O)(Oc1ccccc1)C(F)c1ccc2sc(C(=O)N[C@H]3CCCC[C@H]4CC[C@@H](C(=O)N5C[C@@H](C#N)[C@H](c6ccn(C)c(=O)c6)C5)N4C3=O)cc2c1` (single isomer, unassigned) [Compound 319] was tested, and the IC50 was 1000 to 3000 nM.
